The values that follow come from patent US10077289B2, “Cyclosporins modified on the MeBmt sidechain by heterocyclic rings” (priority 2015, dated 2018).

By Ki is commonly meant a dissociation constant, usually derived from enzyme kinetics or from competition with a known ligand. The solubility is how much of the substance goes into solution per volume. A high value points to much dissolved substance. As a reminder, the IC50 is the midpoint of a concentration-inhibition curve.

The target of series [1] is Human recombinant cyclophilin A (Cyp A) (Homo sapiens (Human), UniProt P62937). Kind of series: Protease-free PPIase assay. On the procedure: Protease-Free PPIase Assay
The protease-free PPIase assay measures the rate of cis to trans conversion of a peptide substrate catalyzed by the enzyme cyclophilin A. Addition of a cyclophilin A inhibitor (e.g., a test compound) slows the catalyzed rate and a Ki value is obtained.
35 mM HEPES pH 7.8, filtered through a 0.2 μm filter. 50 μM DTT was added prior to use each day and then the buffer was stored on ice.
Human recombinant cyclophilin A (Cyp A) (Sigma C3805) enzyme was diluted to 1 μM with enzyme dilution buffer (20 mM HEPES pH 7.8, 40% glycerol, 50 μM DTT and 1 μM BSA) and stored at −20° C.
Succinimide-Ala-Ala-Pro-Phe-p-nitroanilide (SUC-AAPF-pNA) (from Bachem AG, L-1400), 20 mg/ml prepared in 0.5 M LiCl in trifluoroethanol.
The temperature is monitored by the use of a temperature probe. To prevent UV degradation of test compounds, the light below 290 nm was blocked using a glass slide in the light path. 1.5 ml of the assay buffer was put into a 3 ml quartz cuvette and cooled to 10.0±0.1° C. while stirring (vigorous but not so fast as to produce cavitation). The inhibitor was diluted in 100% DMSO, and then added to the assay to a maximum final concentration of 0.5% DMSO in the assay. A blank spectrum was obtained, then 3 μL of enzyme was added (2 nM final concentration) and then 3 μL substrate (60 μM final concentration) added. The absorbance was measured at 330 nm for 300 s or 500 s for blank runs (NOTE: the substrate must be added in one quick injection and the measurements started immediately to minimize mixing errors).
A first order rate equation was fitted to the absorbance data, for each concentration of inhibitor, to obtain the rate constant (the first 10 to 15 seconds were excluded as mixing causes errors in this portion of curve). The catalytic rate was calculated from the enzymatic rate constant minus the background rate constant. An exponential curve was generated using the catalytic rate constants versus the inhibitor concentration to obtain the Ki value for the inhibitor. The Ki value is indicative of the binding affinity between the test compound and cyclophilin A.

A short description of series [2]: Water Solubility Assay (measured in pH 7.8 buffer). Conditions: 25 °C, pH 7.8, aqueous buffer, kinetic from dmso stock. In kind it is physicochemical. As for the experimental part: Water Solubility Assay (Measured in pH 7.8 Buffer)
The aqueous solubility of a compound of Formula I in buffer (pH 7.8) was measured by recording the onset of precipitation of the compound as a function of increasing concentration. The onset of precipitation, if it occurred, was detected by an increase in absorbance at 650 nm.
Assay Buffer: 35 mM HEPES pH 7.8
Stock solutions of Control and Test Compounds: 10 mM in 100% DMSO.
10 mM stock solutions of control and test compounds were prepared in 100% DMSO.
Assay buffer (247.5 μl) was placed into flat bottomed transparent 96-well plate. For blank samples DMSO (2.5 μl) was added. For test and control samples 2.5 μl of the appropriate DMSO dilution stocks were added to the appropriate well. All test and control compounds were performed in triplicate.
The plates were sealed with adhesive plate seal and shaken at 250 rpm at 25° C. for 18 h on a plate shaker. After incubation the plate seals were taken off and any bubbles observed in wells removed. The plates were read on a SpectraMaxM5 with a 5 s pre-shake at 650 nm. Data files were transferred to the appropriate worksheet and the solubility range of the compounds was calculated from the data. The values shown in the Tables indicate the concentration in μM (micromolar) at which the compound remains in solution.

In series [3] the target is calcineurin/cyclophilin A (Homo sapiens (Human), UniProt P62937+P63098+Q08209). Kind of series: Calcineurin Phosphatase (CaN) Assay (+CypA). Format: biochemical. From the text:
Calcineurin Phosphatase (CaN) Assay
The calcineurin phosphatase assay is a means for estimating the immunosuppressive potential of a test compound. Calcineurin is a serine-threonine protein phosphatase that on activation dephosphorylates members of the nuclear factor of activated T cells (NFAT), which are important in T lymphocyte activation.
To investigate the immunosuppressive potential of exemplary compounds of Formula I, which are cyclosporin analogs, their ability to inhibit calcineurin activity was measured in the presence and absence of Cyp A.
The CaN assay kit used is based on a colorimetric assay for measuring calcineurin phosphatase activity, and it is commercially available (Enzo Life Sciences and Calbiochem). Calmodulin is also required for calcineurin activity and RII phosphopeptide is used as an efficient peptide substrate for calcineurin. […] The detection of free phosphate released is based on the classic Malachite green assay.
Enzo Life Sciences CaN Assay Kit: BML-AK804
Malachite Green: BIOMOL Green™ reagent
Calmodulin (Human, recombinant): was thawed on ice, diluted 1:50 with 2× assay buffer, and then stored on ice.
Calcineurin: was thawed quickly, stored on ice immediately, diluted 1:12.5 with 1× assay buffer, and then stored on ice.
R-II Substrate: 915 μL ultrapure water (UPW) was added to the 1.5 mg vial substrate to give a final concentration of 0.75 mM.
Inhibitors: 2.5 mM inhibitor in 100% DMSO.
Cyp A: recombinant human CypA (Sigma C3805), 1 mg/ml; Recombinant 6-His tagged CypA prepared by the University of Edinburgh was also used.
Inhibitor dilutions: inhibitor compounds were diluted in UPW in polypropylene low-binding 96 well plates at 5× the final assay concentration.
Assay Setup: using the half area 96 well plates supplied with the kit, 10 μl UPW was added to duplicate wells to provide the non-inhibited control. 10 μl of the inhibitor or the inhibitor/Cyp A complex was added to the appropriate sample wells. 25 μl of the 2× assay buffer with CaM was added to all wells, then 5 μl of CaN was added to all wells (40 U per well final concentration) except duplicate ‘no calcineurin blank’ wells to which 5 μL 1× assay buffer was added. The assay plate was placed in an oven at 30° C. for 15 minutes to equilibrate to the reaction temperature. The reaction was started by the addition of 10 μl RII-peptide (0.15 mM final concentration). The reaction was allowed to proceed at 30° C. for a time period in which the reaction is linear for about 60 minutes. The reaction was then terminated by adding 100 μl of the Malachite Green reagent. The color was allowed to develop for 15-30 minutes at room temperature before the absorbance at 620 nm was measured using a plate reader (Molecular Devices—SpectraMax M5). The data were analyzed by subtracting ‘no Calcineurin blank’ from all the absorbance readings and plotting the background corrected absorbances against Log10 inhibitor concentration. A sigmoidal-dose response curve was fitted to the data using GraphPad Prism Software.
It exerts its immunosuppressive activity by binding to cyclophilin A to form a complex, which then binds to calcineurin and thereby inhibits calcineurin activity.

The mark [4] stands for this setting: in the presence of Cyp A, 1:1 complex with inhibitor, read-out: Calcineurin Phosphatase (CaN) Assay (+CypA) IC50.
Where [5] appears, read: read-out: Protease-free PPIase Assay Ki, human recombinant Cyp A, 10 °C.

In brackets after ≈: the same amount, converted by molar mass. Read-outs that look alike come from different tables or passages of the source.

As to `CC[C@H]1NC(=O)[C@@H]([C@H](O)[C@H](C)CCCc2cnccn2)N(C)C(=O)[C@@H](C(C)C)N(C)C(=O)[C@@H](CC(C)C)N(C)C(=O)[C@@H](CC(C)C)N(C)C(=O)[C@H](C)NC(=O)[C@@H](C)NC(=O)[C@@H](CC(C)C)N(C)C(=O)[C@@H](C(C)C)NC(=O)[C@H](CC(C)C)N(C)C(=O)[C@@H](C)N(C)C1=O` [Compound 18, [(2S,3R,4R)-3-Hydroxy-4-methyl-2-(methylamino)-7-(pyrazin-2-yl)-heptanoic acid]^1 [(R)-methyl-Sar]^3 cyclosporin A], the Ki in series [1] came out at 2.2 nM. In series [2], the solubility at 18 h is 50 to 75 µM (≈ 64.1 to 96.2 µg/mL). Further, the concentration for half-maximal inhibition (IC50) in series [3] (setting [4]) was determined as 5800 nM.

On to `CC[C@H]1NC(=O)[C@@H]([C@H](O)[C@H](C)Cc2nc3ccccc3[nH]2)N(C)C(=O)[C@@H](C(C)C)N(C)C(=O)[C@@H](CC(C)C)N(C)C(=O)[C@@H](CC(C)C)N(C)C(=O)[C@H](C)NC(=O)[C@@H](C)NC(=O)[C@@H](CC(C)C)N(C)C(=O)[C@@H](C(C)C)NC(=O)[C@H](CC(C)C)N(C)C(=O)[C@@H](C)N(C)C1=O` [Compound 9, [(2S,3R,4R)-1-(1H-Benzimidazol-2-yl)-3-hydroxy-4-methyl-2-(methylamino)pentanoic acid]^1 [(R)-methyl-Sar]^3 cyclosporin A], for which the Ki in series [1] came out at 2.3 nM. The compound further gave a solubility at 18 h in series [2] of 25 to 50 µM (≈ 32.3 to 64.6 µg/mL). In series [3] (setting [4]), the IC50 is greater than 10000 nM.

With `CC[C@H]1NC(=O)[C@@H]([C@H](O)[C@H](C)CCCc2ccccn2)N(C)C(=O)[C@@H](C(C)C)N(C)C(=O)[C@@H](CC(C)C)N(C)C(=O)[C@@H](CC(C)C)N(C)C(=O)[C@H](C)NC(=O)[C@@H](C)NC(=O)[C@@H](CC(C)C)N(C)C(=O)[C@@H](C(C)C)NC(=O)[C@H](CC(C)C)N(C)C(=O)[C@@H](CO)N(C)C1=O` [Compound 34], the Ki in series [1] was 3.1 nM. In addition, the solubility at 18 h in series [2] is greater than 100 µM. The IC50 in series [3] (setting [4]) was 4650 nM.

`CC[C@H]1NC(=O)[C@@H]([C@H](O)[C@H](C)CCCc2csc(C)n2)N(C)C(=O)[C@@H](C(C)C)N(C)C(=O)[C@@H](CC(C)C)N(C)C(=O)[C@@H](CC(C)C)N(C)C(=O)[C@H](C)NC(=O)[C@@H](C)NC(=O)[C@@H](CC(C)C)N(C)C(=O)[C@@H](C(C)C)NC(=O)[C@H](CC(C)C)N(C)C(=O)[C@@H](C)N(C)C1=O` [Compound 13, [(2S,3R,4R)-3-Hydroxy-4-methyl-2-(methylamino)-7-(2-methyl-thiazol-4-yl)-heptanoic acid]^1 [(R)-methyl-Sar]^3 cyclosporin A]: the Ki in series [1] turned out to be 3.2 nM. The solubility at 18 h in series [2] was in the range of 25 to 50 µM (≈ 32.5 to 65.1 µg/mL). The IC50 in series [3] (setting [4]) was 1450 nM.

With `CC[C@H]1NC(=O)[C@@H]([C@H](O)[C@H](C)Cc2nccn2CCC(F)(F)F)N(C)C(=O)[C@@H](C(C)C)N(C)C(=O)[C@@H](CC(C)C)N(C)C(=O)[C@@H](CC(C)C)N(C)C(=O)[C@H](C)NC(=O)[C@@H](C)NC(=O)[C@@H](CC(C)C)N(C)C(=O)[C@@H](C(C)C)NC(=O)[C@H](CC(C)C)N(C)C(=O)[C@@H](C)N(C)C1=O` [Compound 8, [(2S,3R,4R)-3-Hydroxy-4-methyl-2-(methylamino)-5-[3-(3,3,3-trifluoro-propyl)-3H-imidazol-2-yl]-pentanoic acid]^1 [(R)-methyl-Sar]^3 cyclosporin A], the Ki in series [1] (setting [5]) was 7.4 nM. Also, in series [3] (setting [4]), the IC50 is greater than 10000 nM.

`CC[C@H]1NC(=O)[C@@H]([C@H](O)[C@H](C)Cc2nc3ccccc3[nH]2)N(C)C(=O)[C@@H](C(C)C)N(C)C(=O)[C@@H](CC(C)C)N(C)C(=O)[C@@H](CC(C)C)N(C)C(=O)[C@H](C)NC(=O)[C@@H](C)NC(=O)[C@@H](CC(C)C)N(C)C(=O)[C@@H](C(C)C)NC(=O)[C@H](CC(C)C)N(C)C(=O)CN(C)C1=O` [Compound 10, [(2S,3R,4R)-1-(1H-Benzimidazol-2-yl)-3-hydroxy-4-methyl-2-(methylamino)pentanoic acid]^1 cyclosporin A] had a solubility at 18 h in series [2] of 25 to 50 µM (≈ 32 to 63.9 µg/mL).

In turn, `CC[C@H]1NC(=O)[C@@H]([C@H](O)[C@H](C)CCCc2ncco2)N(C)C(=O)[C@@H](C(C)C)N(C)C(=O)[C@@H](CC(C)C)N(C)C(=O)[C@@H](CC(C)C)N(C)C(=O)[C@H](C)NC(=O)[C@@H](C)NC(=O)[C@@H](CC(C)C)N(C)C(=O)[C@@H](C(C)C)NC(=O)[C@H](CC(C)C)N(C)C(=O)[C@@H](C)N(C)C1=O` [Compound 24] had a solubility at 18 h in series [2] greater than 100 µM.

For the compound `CC[C@H]1NC(=O)[C@@H]([C@H](O)[C@H](C)CCCc2cn3c(n2)CCCC3)N(C)C(=O)[C@@H](C(C)C)N(C)C(=O)[C@@H](CC(C)C)N(C)C(=O)[C@@H](CC(C)C)N(C)C(=O)[C@H](C)NC(=O)[C@@H](C)NC(=O)[C@@H](CC(C)C)N(C)C(=O)[C@@H](C(C)C)NC(=O)[C@H](CC(C)C)N(C)C(=O)[C@@H](C)N(C)C1=O` [Compound 19], the Ki in series [1] (setting [5]) amounted to 5.4 nM. Also, in series [3], the IC50 was greater than 10000 nM.

Regarding `CC[C@H]1NC(=O)[C@@H]([C@H](O)[C@H](C)CCCc2ccc(F)cn2)N(C)C(=O)[C@@H](C(C)C)N(C)C(=O)[C@@H](CC(C)C)N(C)C(=O)[C@@H](CC(C)C)N(C)C(=O)[C@H](C)NC(=O)[C@@H](C)NC(=O)[C@@H](CC(C)C)N(C)C(=O)[C@@H](C(C)C)NC(=O)[C@H](CC(C)C)N(C)C(=O)[C@@H](C)N(C)C1=O` [Compound 14, [(2S,3R,4R)-7-(5-Fluoro-pyridin-2-yl)-3-hydroxy-4-methyl-2-(methylamino)-heptanoic acid]^1 [(R)-methyl-Sar]^3 cyclosporin A], the Ki in series [1] turned out to be 1.5 nM. Moreover, the IC50 in series [3] (setting [4]) is 8750 nM.
